Laboratory results as given in PubChem BioAssay (NCI).
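A five-concentration, 48-hour dose response in 96-well plates underlies each endpoint, interpolated linearly between surrounding concentrations. TGI: total growth inhibition.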

Assays:
Test in all cases: DTP human tumour cell line panel, 48 h
786-0 renal = system: 786-0 renal
A498 renal = system: A498 renal
A549 NSCLC = system: A549 NSCLC
ACHN renal = system: ACHN renal
CAKI-1 renal = system: CAKI-1 renal
COLO 205 colon = system: COLO 205 colon
DLD-1 colon = system: DLD-1 colon
DMS 114 small cell lung = system: DMS 114 small cell lung
DMS 273 small cell lung = system: DMS 273 small cell lung
EKVX NSCLC = system: EKVX NSCLC
HCT-116 colon = system: HCT-116 colon
HCT-15 colon = system: HCT-15 colon
HOP-18 NSCLC = system: HOP-18 NSCLC
HOP-62 NSCLC = system: HOP-62 NSCLC
HOP-92 NSCLC = system: HOP-92 NSCLC
HT29 colon = system: HT29 colon
IGROV1 ovarian = system: IGROV1 ovarian
K-562 leukemia = system: K-562 leukemia
KM12 colon = system: KM12 colon
KM20L2 colon = system: KM20L2 colon
LOX IMVI melanoma = system: LOX IMVI melanoma
M19-MEL melanoma = system: M19-MEL melanoma
MALME-3M melanoma = system: MALME-3M melanoma
NCI-H23 lung = system: NCI-H23 lung
NCI-H460 lung = system: NCI-H460 lung
OVCAR-3 ovarian = system: OVCAR-3 ovarian
OVCAR-4 ovarian = system: OVCAR-4 ovarian
OVCAR-5 ovarian = system: OVCAR-5 ovarian
OVCAR-8 ovarian = system: OVCAR-8 ovarian
RPMI-8226 leukemia = system: RPMI-8226 leukemia
RXF 393 renal = system: RXF 393 renal
SF-268 CNS = system: SF-268 CNS
SF-295 CNS = system: SF-295 CNS
SF-539 CNS = system: SF-539 CNS
SK-MEL-2 melanoma = system: SK-MEL-2 melanoma
SK-MEL-28 melanoma = system: SK-MEL-28 melanoma
SK-MEL-5 melanoma = system: SK-MEL-5 melanoma
SN12C renal = system: SN12C renal
SNB-19 CNS = system: SNB-19 CNS
SNB-75 CNS = system: SNB-75 CNS
SNB-78 CNS = system: SNB-78 CNS
SW-620 colon = system: SW-620 colon
TK-10 renal = system: TK-10 renal
U251 CNS = system: U251 CNS
UACC-257 melanoma = system: UACC-257 melanoma
UACC-62 melanoma = system: UACC-62 melanoma
XF 498 CNS = system: XF 498 CNS
CCRF-CEM leukemia = system: CCRF-CEM leukemia
DU-145 prostate = system: DU-145 prostate
HCC-2998 colon = system: HCC-2998 colon
HL-60(TB) leukemia = system: HL-60(TB) leukemia
HS 578T breast = system: HS 578T breast
LXFL 529 NSCLC = system: LXFL 529 NSCLC
M14 melanoma = system: M14 melanoma
MCF7 breast = system: MCF7 breast
MDA-MB-435 = system: MDA-MB-435
MDA-N = system: MDA-N
MOLT-4 leukemia = system: MOLT-4 leukemia
NCI-H226 lung = system: NCI-H226 lung
NCI-H522 lung = system: NCI-H522 lung
NCI/ADR-RES ovarian = system: NCI/ADR-RES ovarian
SK-OV-3 ovarian = system: SK-OV-3 ovarian
SR leukemia = system: SR leukemia
T-47D breast = system: T-47D breast
UO-31 renal = system: UO-31 renal

`C[C@@]12CCCC(=O)N1[C@@H](CO)C(c1ccccc1)O2` (some centres undefined) showed a TGI (786-0 renal) of over 100 µM, a TGI (A498 renal) of over 100 µM and a TGI (A549 NSCLC) of over 100 µM. For the same molecule, the TGI (ACHN renal) was over 100 µM, the TGI (CAKI-1 renal) was over 100 µM and the TGI (COLO 205 colon) was over 100 µM. For the same molecule, the TGI (DLD-1 colon) was over 100 µM, the TGI (DMS 114 small cell lung) was over 100 µM and the TGI (DMS 273 small cell lung) was over 100 µM. The TGI (EKVX NSCLC) was over 100 µM, the TGI (HCT-116 colon) was over 100 µM and the TGI (HCT-15 colon) was over 100 µM. It also gave a TGI (HOP-18 NSCLC) of over 100 µM, a TGI (HOP-62 NSCLC) of over 100 µM and a TGI (HOP-92 NSCLC) of over 100 µM. The TGI (HT29 colon) was over 100 µM, the TGI (IGROV1 ovarian) was over 100 µM and the TGI (K-562 leukemia) was over 100 µM. The TGI (KM12 colon) was over 100 µM, the TGI (KM20L2 colon) was over 100 µM and the TGI (LOX IMVI melanoma) was over 100 µM. The TGI (M19-MEL melanoma) was over 100 µM, the TGI (MALME-3M melanoma) was over 100 µM and the TGI (NCI-H23 lung) was over 100 µM. It also gave a TGI (NCI-H460 lung) of over 100 µM, a TGI (OVCAR-3 ovarian) of over 100 µM and a TGI (OVCAR-4 ovarian) of over 100 µM. For the same molecule, the TGI (OVCAR-5 ovarian) was over 100 µM, the TGI (OVCAR-8 ovarian) was over 100 µM and the TGI (RPMI-8226 leukemia) was over 100 µM. The TGI (RXF 393 renal) was over 100 µM, the TGI (SF-268 CNS) was over 100 µM and the TGI (SF-295 CNS) was over 100 µM. It also gave a TGI (SF-539 CNS) of over 100 µM, a TGI (SK-MEL-2 melanoma) of over 100 µM and a TGI (SK-MEL-28 melanoma) of over 100 µM. The TGI (SK-MEL-5 melanoma) was over 100 µM, the TGI (SN12C renal) was over 100 µM and the TGI (SNB-19 CNS) was over 100 µM. The TGI (SNB-75 CNS) was over 100 µM, the TGI (SNB-78 CNS) was over 100 µM and the TGI (SW-620 colon) was over 100 µM. The TGI (TK-10 renal) was over 100 µM, the TGI (U251 CNS) was over 100 µM and the TGI (UACC-257 melanoma) was over 100 µM. For the same molecule, the TGI (UACC-62 melanoma) was over 100 µM and the TGI (XF 498 CNS) was over 100 µM.

With `NC(=O)C(=O)n1ncc(Cl)c(Cl)c1=O` the TGI (786-0 renal) was 58.5 µM, the TGI (A498 renal) was over 100 µM and the TGI (A549 NSCLC) was over 100 µM. For the same molecule, the TGI (ACHN renal) was 55.7 µM, the TGI (CAKI-1 renal) was 43.5 µM and the TGI (CCRF-CEM leukemia) was 26.1 µM. The TGI (COLO 205 colon) was over 51.1 µM, the TGI (DLD-1 colon) was 47.7 µM and the TGI (DMS 114 small cell lung) was 36.6 µM. The TGI (DMS 273 small cell lung) was over 100 µM, the TGI (DU-145 prostate) was over 100 µM and the TGI (EKVX NSCLC) was 67.5 µM. For the same molecule, the TGI (HCC-2998 colon) was 32.1 µM, the TGI (HCT-116 colon) was 55.3 µM and the TGI (HCT-15 colon) was over 76.4 µM. The TGI (HL-60(TB) leukemia) was 17.7 µM, the TGI (HOP-18 NSCLC) was 35.1 µM and the TGI (HOP-62 NSCLC) was over 100 µM. The TGI (HOP-92 NSCLC) was over 57.8 µM, the TGI (HS 578T breast) was over 100 µM and the TGI (HT29 colon) was 44.4 µM. The TGI (IGROV1 ovarian) was over 77.4 µM, the TGI (K-562 leukemia) was 47 µM and the TGI (KM12 colon) was 62.5 µM. It also gave a TGI (KM20L2 colon) of over 90.8 µM, a TGI (LOX IMVI melanoma) of 56.6 µM and a TGI (LXFL 529 NSCLC) of 29 µM. For the same molecule, the TGI (M14 melanoma) was 46.9 µM, the TGI (M19-MEL melanoma) was over 65.3 µM and the TGI (MALME-3M melanoma) was 38.7 µM. It also gave a TGI (MCF7 breast) of over 100 µM, a TGI (MDA-MB-435) of over 100 µM and a TGI (MDA-N) of over 100 µM. The TGI (MOLT-4 leukemia) was 20.4 µM, the TGI (NCI-H226 lung) was over 100 µM and the TGI (NCI-H23 lung) was 52.9 µM. It also gave a TGI (NCI-H460 lung) of over 100 µM, a TGI (NCI-H522 lung) of 20.6 µM and a TGI (NCI/ADR-RES ovarian) of over 100 µM. The TGI (OVCAR-3 ovarian) was 50.8 µM, the TGI (OVCAR-4 ovarian) was 46.9 µM and the TGI (OVCAR-5 ovarian) was 63.1 µM. It also gave a TGI (OVCAR-8 ovarian) of 65.9 µM, a TGI (RPMI-8226 leukemia) of 51.9 µM and a TGI (RXF 393 renal) of over 43.1 µM. It also gave a TGI (SF-268 CNS) of over 92.9 µM, a TGI (SF-295 CNS) of 20.3 µM and a TGI (SF-539 CNS) of 86.1 µM. It also gave a TGI (SK-MEL-2 melanoma) of 30.8 µM, a TGI (SK-MEL-28 melanoma) of 30.5 µM and a TGI (SK-MEL-5 melanoma) of 39.4 µM. It also gave a TGI (SK-OV-3 ovarian) of over 100 µM, a TGI (SN12C renal) of 40.8 µM and a TGI (SNB-19 CNS) of over 100 µM. For the same molecule, the TGI (SNB-75 CNS) was over 69.7 µM, the TGI (SNB-78 CNS) was 49.8 µM and the TGI (SR leukemia) was over 49.7 µM. It also gave a TGI (SW-620 colon) of 35.3 µM, a TGI (T-47D breast) of over 100 µM and a TGI (TK-10 renal) of 50.8 µM. The TGI (U251 CNS) was over 60.3 µM, the TGI (UACC-257 melanoma) was 58.4 µM and the TGI (UACC-62 melanoma) was 54.4 µM. The TGI (UO-31 renal) was 48.1 µM and the TGI (XF 498 CNS) was 31.6 µM.

`O=c1c2c(nc3n1CCC3)sc1c(O)c(Br)ccc12` gave a TGI (786-0 renal) of 37.4 µM, a TGI (A498 renal) of 24.5 µM and a TGI (A549 NSCLC) of 29.9 µM. The TGI (ACHN renal) was 35.8 µM, the TGI (CAKI-1 renal) was over 100 µM and the TGI (CCRF-CEM leukemia) was 45.1 µM. It also gave a TGI (COLO 205 colon) of 24.4 µM, a TGI (DLD-1 colon) of over 100 µM and a TGI (DMS 114 small cell lung) of 32.4 µM. For the same molecule, the TGI (DMS 273 small cell lung) was 31 µM, the TGI (EKVX NSCLC) was 68.6 µM and the TGI (HCC-2998 colon) was 38 µM. It also gave a TGI (HCT-116 colon) of 35.2 µM, a TGI (HCT-15 colon) of 45.7 µM and a TGI (HL-60(TB) leukemia) of 33.8 µM. For the same molecule, the TGI (HOP-18 NSCLC) was over 100 µM, the TGI (HOP-62 NSCLC) was 45.3 µM and the TGI (HOP-92 NSCLC) was over 100 µM. The TGI (HT29 colon) was 33.1 µM, the TGI (IGROV1 ovarian) was 82.5 µM and the TGI (K-562 leukemia) was 59.2 µM. The TGI (KM12 colon) was 29.7 µM, the TGI (KM20L2 colon) was 35.9 µM and the TGI (LOX IMVI melanoma) was 27.1 µM. For the same molecule, the TGI (M14 melanoma) was over 100 µM, the TGI (M19-MEL melanoma) was 32.8 µM and the TGI (MALME-3M melanoma) was 34.4 µM. It also gave a TGI (MOLT-4 leukemia) of 55.1 µM, a TGI (NCI-H226 lung) of 73.2 µM and a TGI (NCI-H23 lung) of 92.7 µM. For the same molecule, the TGI (NCI-H460 lung) was 34.4 µM, the TGI (NCI-H522 lung) was 37.9 µM and the TGI (OVCAR-3 ovarian) was 36.7 µM. It also gave a TGI (OVCAR-4 ovarian) of 54.9 µM, a TGI (OVCAR-5 ovarian) of 51.7 µM and a TGI (OVCAR-8 ovarian) of 24.2 µM. For the same molecule, the TGI (RPMI-8226 leukemia) was 53.6 µM, the TGI (RXF 393 renal) was over 100 µM and the TGI (SF-268 CNS) was over 100 µM. The TGI (SF-295 CNS) was 35 µM, the TGI (SF-539 CNS) was 33 µM and the TGI (SK-MEL-2 melanoma) was 39.3 µM. The TGI (SK-MEL-28 melanoma) was 34.8 µM, the TGI (SK-MEL-5 melanoma) was 30.4 µM and the TGI (SK-OV-3 ovarian) was over 100 µM. The TGI (SN12C renal) was 43.1 µM, the TGI (SNB-19 CNS) was over 100 µM and the TGI (SNB-75 CNS) was over 100 µM. The TGI (SNB-78 CNS) was over 100 µM, the TGI (SR leukemia) was 54 µM and the TGI (SW-620 colon) was 29.9 µM. It also gave a TGI (TK-10 renal) of 60.5 µM, a TGI (U251 CNS) of 57.3 µM and a TGI (UACC-257 melanoma) of 30.7 µM. It also gave a TGI (UACC-62 melanoma) of 35.8 µM, a TGI (UO-31 renal) of 45.8 µM and a TGI (XF 498 CNS) of 36.8 µM.
